The structures appear in SMILES notation. Calls of active or inactive are those of the source. No cut-off for these calls is given here.

Experimental findings from ChEMBL document CHEMBL1138920, “Putative therapeutic agents for the learning and memory deficits of people with Down syndrome” (Bioorg Med Chem Lett, 2006) are described below.

Assay [1] has as its target Dual specificity tyrosine-phosphorylation-regulated kinase 1A (Mus musculus) (UniProt Q61214). As to the kind of experiment: Inhibition of mouse Dyrk1A autophosphorylation in HEk293 cells at 10 uM. The assay is classed as cell-based.
Assay [2] addresses Dual specificity tyrosine-phosphorylation-regulated kinase 1A (Mus musculus, UniProt Q61214). As to the kind of experiment: Inhibition of mouse Dyrk1A autophosphorylation in HEk293 cells. The assay is classed as cell-based.
Assay [3] has as its target Cyclin-dependent kinase 5/CDK5 activator 1 (Homo sapiens) (UniProt Q00535+Q15078). As to the kind of experiment: Activity against CDK5/p35 at 10 uM in the presence of 100 uM ATP relative to control. It counts as protein-complex assay.
Assay [4] concerns the target Tyrosine-protein kinase Lck (Homo sapiens) (UniProt P06239). In words: Activity against Lck at 10 uM in the presence of 100 uM ATP relative to control.
Assay [5] addresses T1, Dual specificity tyrosine-phosphorylation-regulated kinase 2 (Homo sapiens) (UniProt Q92630).
T1 sequence (whole entry): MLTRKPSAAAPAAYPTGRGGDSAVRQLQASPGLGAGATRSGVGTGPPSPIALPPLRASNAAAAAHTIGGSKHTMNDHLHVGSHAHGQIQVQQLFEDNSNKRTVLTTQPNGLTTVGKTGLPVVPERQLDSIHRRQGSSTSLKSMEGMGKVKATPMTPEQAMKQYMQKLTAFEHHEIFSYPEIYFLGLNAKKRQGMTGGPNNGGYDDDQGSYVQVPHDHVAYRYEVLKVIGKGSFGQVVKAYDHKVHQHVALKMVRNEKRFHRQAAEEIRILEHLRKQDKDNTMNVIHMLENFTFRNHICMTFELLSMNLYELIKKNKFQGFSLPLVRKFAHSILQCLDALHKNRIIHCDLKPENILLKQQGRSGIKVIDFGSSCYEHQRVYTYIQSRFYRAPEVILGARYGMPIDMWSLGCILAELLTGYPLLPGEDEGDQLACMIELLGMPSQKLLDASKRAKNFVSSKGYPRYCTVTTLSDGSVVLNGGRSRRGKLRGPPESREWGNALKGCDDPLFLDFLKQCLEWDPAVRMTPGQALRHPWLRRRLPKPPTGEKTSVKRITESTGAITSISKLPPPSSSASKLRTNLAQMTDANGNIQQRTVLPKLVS
In words: Activity against DYRK2 at 10 uM in the presence of 100 uM ATP relative to control.

The target in assay [6] is Mitogen-activated protein kinase 1 (Homo sapiens) (UniProt P28482). As to the kind of experiment: Activity against MAPK2 at 10 uM in the presence of 100 uM ATP relative to control.
Mitogen-activated protein kinase 1 (Homo sapiens), sequence (P28482 whole entry): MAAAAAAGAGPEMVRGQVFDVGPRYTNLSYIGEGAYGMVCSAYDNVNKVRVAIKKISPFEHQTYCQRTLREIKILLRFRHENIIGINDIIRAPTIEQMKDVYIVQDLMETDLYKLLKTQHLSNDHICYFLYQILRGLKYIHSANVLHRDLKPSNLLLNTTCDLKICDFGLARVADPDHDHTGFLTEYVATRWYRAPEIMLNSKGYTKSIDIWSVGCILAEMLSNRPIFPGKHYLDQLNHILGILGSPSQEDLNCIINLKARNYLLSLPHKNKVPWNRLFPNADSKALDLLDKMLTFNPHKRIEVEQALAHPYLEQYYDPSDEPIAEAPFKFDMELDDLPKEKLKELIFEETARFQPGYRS
Assay [7] deals with Dual specificity protein kinase CLK3 (Homo sapiens) (UniProt P49761). As to the kind of experiment: Activity against CLK3 at 10 uM in the presence of 100 uM ATP relative to control.
Dual specificity protein kinase CLK3 (Homo sapiens), sequence (P49761 whole entry, looked up): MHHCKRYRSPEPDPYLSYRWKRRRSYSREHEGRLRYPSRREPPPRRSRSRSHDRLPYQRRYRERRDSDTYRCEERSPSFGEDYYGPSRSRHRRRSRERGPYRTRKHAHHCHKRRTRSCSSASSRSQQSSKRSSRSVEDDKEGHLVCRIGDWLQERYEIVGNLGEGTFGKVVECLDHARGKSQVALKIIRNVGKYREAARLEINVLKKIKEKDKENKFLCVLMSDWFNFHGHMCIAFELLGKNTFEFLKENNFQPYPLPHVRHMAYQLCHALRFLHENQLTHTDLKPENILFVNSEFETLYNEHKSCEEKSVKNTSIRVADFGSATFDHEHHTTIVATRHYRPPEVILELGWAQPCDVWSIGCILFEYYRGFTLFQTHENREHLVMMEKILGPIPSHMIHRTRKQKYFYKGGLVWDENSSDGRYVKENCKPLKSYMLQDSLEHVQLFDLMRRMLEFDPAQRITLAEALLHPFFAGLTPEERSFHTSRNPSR
The target in assay [8] is Casein kinase II (Homo sapiens) (UniProt P67870+P68400+P19784). As to the kind of experiment: Activity against CK2 at 10 uM in the presence of 100 uM ATP relative to control. It counts as protein-complex assay.
Assay [9] concerns the target Mitogen-activated protein kinase 10 (Homo sapiens) (UniProt P53779). In words: Activity against JNK3 at 10 uM in the presence of 100 uM ATP relative to control.
Assay [10] concerns the target Mitogen-activated protein kinase 14 (Homo sapiens) (UniProt Q16539). In words: Activity against SAPK2-alpha at 10 uM in the presence of 100 uM ATP relative to control.
Assay [11] concerns the target Tyrosine-protein kinase ABL1 (Homo sapiens) (UniProt P00519). In words: Activity against Abl at 10 uM in the presence of 100 uM ATP relative to control.
Assay [12] addresses Protein kinase C alpha type (Homo sapiens) (UniProt P17252). As to the kind of experiment: Activity against PKCalpha at 10 uM in the presence of 100 uM ATP relative to control.
In assay [13] the target is T2, MAP kinase-activated protein kinase 5 (Homo sapiens) (UniProt Q8IW41).
T2 sequence (whole entry): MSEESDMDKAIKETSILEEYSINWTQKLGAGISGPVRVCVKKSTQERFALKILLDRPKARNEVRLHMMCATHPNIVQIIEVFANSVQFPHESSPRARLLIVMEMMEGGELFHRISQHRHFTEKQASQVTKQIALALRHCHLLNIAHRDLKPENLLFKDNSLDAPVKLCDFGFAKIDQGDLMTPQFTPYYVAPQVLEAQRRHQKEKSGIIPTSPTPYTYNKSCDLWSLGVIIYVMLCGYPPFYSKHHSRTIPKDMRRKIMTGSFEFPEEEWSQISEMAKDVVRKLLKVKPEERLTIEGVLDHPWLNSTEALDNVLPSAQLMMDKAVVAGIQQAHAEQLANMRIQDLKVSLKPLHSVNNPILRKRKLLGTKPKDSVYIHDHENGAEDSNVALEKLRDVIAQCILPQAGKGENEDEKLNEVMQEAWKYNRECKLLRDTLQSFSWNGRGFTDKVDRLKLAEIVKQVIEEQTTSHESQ
As to the kind of experiment: Activity against PRAK at 10 uM in the presence of 100 uM ATP relative to control.

Assay [14] concerns the target Cyclin-dependent kinase 2/cyclin A (Homo sapiens) (UniProt P24941+P20248+P78396). In words: Activity against CDK2/cyclinA at 10 uM in the presence of 100 uM ATP relative to control. It counts as protein-complex assay.
Assay [15] concerns the target CaM kinase II (Homo sapiens) (UniProt Q13557+Q13555+Q13554+Q9UQM7). In words: Activity against CaMK2 at 10 uM in the presence of 100 uM ATP relative to control. The assay is classed as protein assay.
The target of assay [16] is Glycogen synthase kinase-3 beta (Homo sapiens) (UniProt P49841). In words: Activity against GSK3-beta at 10 uM in the presence of 100 uM ATP relative to control.
Glycogen synthase kinase-3 beta (Homo sapiens), sequence (P49841 whole entry, looked up): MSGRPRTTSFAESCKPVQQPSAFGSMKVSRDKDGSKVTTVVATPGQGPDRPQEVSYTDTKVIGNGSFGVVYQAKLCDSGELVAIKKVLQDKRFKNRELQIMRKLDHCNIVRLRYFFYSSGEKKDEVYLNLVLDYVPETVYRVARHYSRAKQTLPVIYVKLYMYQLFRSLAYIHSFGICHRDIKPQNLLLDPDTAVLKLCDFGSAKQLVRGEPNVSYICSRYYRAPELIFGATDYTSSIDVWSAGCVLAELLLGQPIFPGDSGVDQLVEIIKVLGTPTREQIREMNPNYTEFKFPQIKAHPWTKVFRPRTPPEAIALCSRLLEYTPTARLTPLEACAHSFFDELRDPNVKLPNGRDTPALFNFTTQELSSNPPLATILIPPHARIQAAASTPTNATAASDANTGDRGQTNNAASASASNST
The target of assay [17] is cAMP-dependent protein kinase (PKA) (Homo sapiens) (UniProt P22694+P17612+P22612). As to the kind of experiment: Activity against PKA at 10 uM in the presence of 100 uM ATP relative to control. The assay is classed as protein assay.

Mitogen-activated protein kinase 10 (Homo sapiens), sequence (P53779 whole entry): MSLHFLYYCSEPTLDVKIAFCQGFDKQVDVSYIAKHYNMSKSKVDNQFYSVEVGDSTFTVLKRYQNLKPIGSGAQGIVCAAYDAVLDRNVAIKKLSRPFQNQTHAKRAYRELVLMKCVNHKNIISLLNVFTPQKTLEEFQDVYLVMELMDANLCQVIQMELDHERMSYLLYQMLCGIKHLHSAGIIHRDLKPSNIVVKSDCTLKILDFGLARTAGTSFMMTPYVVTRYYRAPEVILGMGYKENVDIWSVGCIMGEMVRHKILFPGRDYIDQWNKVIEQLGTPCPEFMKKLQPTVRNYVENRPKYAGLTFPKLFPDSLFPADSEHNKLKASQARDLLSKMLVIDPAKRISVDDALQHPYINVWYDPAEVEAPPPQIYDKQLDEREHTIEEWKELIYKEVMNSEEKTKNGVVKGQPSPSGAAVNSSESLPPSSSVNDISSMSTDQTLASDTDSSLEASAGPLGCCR
Mitogen-activated protein kinase 14 (Homo sapiens), sequence (Q16539 whole entry): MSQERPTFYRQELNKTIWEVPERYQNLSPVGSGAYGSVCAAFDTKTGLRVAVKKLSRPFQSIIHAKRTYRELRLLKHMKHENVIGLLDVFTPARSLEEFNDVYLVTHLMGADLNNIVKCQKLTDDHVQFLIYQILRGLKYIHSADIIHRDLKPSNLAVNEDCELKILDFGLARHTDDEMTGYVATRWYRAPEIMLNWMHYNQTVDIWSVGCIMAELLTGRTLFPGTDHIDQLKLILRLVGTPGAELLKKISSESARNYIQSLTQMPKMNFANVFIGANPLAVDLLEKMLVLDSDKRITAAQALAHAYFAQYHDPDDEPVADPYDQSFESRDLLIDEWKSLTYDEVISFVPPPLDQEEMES
Tyrosine-protein kinase ABL1 (Homo sapiens), sequence (P00519 whole entry): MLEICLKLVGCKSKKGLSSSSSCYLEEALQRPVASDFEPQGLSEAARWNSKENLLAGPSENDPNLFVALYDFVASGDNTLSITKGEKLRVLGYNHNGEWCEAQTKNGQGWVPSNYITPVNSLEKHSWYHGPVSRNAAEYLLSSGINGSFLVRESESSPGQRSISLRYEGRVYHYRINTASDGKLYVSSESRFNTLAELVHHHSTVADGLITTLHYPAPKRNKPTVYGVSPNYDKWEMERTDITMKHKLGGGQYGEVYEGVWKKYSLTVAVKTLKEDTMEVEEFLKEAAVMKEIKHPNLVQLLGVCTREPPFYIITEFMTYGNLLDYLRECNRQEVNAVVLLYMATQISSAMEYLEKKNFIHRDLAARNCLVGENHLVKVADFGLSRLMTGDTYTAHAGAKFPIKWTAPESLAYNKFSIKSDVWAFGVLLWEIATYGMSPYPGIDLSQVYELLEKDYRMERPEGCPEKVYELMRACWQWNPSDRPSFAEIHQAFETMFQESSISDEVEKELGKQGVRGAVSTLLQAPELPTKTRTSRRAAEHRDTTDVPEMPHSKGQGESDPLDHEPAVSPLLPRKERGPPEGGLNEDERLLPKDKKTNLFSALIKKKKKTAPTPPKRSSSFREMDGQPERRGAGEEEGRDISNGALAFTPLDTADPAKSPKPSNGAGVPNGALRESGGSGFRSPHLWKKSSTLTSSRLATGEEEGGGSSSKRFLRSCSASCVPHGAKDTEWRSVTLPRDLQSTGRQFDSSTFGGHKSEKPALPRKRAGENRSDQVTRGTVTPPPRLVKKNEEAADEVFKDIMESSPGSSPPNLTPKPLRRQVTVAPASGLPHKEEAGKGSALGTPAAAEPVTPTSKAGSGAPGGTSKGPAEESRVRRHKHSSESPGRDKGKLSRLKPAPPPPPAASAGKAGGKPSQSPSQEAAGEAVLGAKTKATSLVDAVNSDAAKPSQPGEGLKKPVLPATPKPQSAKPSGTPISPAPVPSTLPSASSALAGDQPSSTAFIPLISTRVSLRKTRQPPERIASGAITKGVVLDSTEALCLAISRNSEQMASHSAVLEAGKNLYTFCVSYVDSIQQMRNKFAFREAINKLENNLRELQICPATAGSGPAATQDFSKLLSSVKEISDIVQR
Cyclin-dependent kinase 5/CDK5 activator 1 (Homo sapiens), sequence (Q00535 whole entry): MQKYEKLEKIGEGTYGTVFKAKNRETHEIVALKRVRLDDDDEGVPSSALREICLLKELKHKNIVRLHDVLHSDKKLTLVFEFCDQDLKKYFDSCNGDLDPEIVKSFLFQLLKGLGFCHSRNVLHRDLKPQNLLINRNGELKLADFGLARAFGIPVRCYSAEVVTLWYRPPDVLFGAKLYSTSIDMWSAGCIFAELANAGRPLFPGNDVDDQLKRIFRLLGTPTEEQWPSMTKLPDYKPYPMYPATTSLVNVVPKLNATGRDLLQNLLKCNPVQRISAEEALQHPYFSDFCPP
Cyclin-dependent kinase 5/CDK5 activator 1 (Homo sapiens), sequence (Q15078 99-307 partner limits assumed): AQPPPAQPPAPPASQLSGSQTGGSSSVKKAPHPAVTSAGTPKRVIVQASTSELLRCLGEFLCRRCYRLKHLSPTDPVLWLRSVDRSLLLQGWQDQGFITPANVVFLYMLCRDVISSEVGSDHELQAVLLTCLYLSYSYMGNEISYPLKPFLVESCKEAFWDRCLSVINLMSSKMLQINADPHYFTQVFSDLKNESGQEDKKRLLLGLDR
Tyrosine-protein kinase Lck (Homo sapiens), sequence (P06239 2-509 limits assumed): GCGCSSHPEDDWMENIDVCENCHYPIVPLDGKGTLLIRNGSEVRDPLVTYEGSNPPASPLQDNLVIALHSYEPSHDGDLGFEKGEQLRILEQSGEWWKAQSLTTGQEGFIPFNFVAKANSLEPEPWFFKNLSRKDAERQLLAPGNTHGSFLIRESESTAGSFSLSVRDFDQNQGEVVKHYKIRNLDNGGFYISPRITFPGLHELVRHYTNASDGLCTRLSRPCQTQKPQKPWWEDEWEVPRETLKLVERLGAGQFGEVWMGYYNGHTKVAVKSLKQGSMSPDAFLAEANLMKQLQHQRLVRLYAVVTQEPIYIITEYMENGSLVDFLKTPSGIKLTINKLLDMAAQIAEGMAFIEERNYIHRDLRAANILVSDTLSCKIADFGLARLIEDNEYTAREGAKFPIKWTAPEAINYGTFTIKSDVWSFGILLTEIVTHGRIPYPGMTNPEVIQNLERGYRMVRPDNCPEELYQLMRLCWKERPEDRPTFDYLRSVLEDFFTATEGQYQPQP

As a reminder, the inhibition is how much of the control response was suppressed. By IC50 is commonly meant the concentration that gives 50% inhibition. Read a high IC50 as weaker potency in that assay. In the case of `CCOC(=O)c1ccc2ncc(C(=O)OCC)c(Nc3ccc(C)c(Br)c3)c2c1`, the inhibition in assay [1] was 13%. The IC50 in assay [2] is 50 µM.

Take `CN1C(=O)/C(=C2\SC(Nc3ccc(F)cc3)=NC2=O)c2ccccc21`: the inhibition in [1] came to 12%. Further, the IC50 in [2] is 50 µM.

The molecule `CCOC(=O)c1ccc2ncc(C(=O)OCC)c(Nc3ccc(NC(C)=O)cc3)c2c1` came in with an inhibition in assay [1] of 52%. Further, in assay [2], the half-inhibitory concentration (IC50) stood at 10 µM.

The molecule `Brc1ccc(Nc2nc(NCc3ccco3)c3ccccc3n2)cc1` showed an inhibition in assay [1] of 8%. Half-maximal inhibition in [2] (IC50) was put at 5 µM.

Take `CCOC(=O)c1cnc2ccc(C(=O)OC)cc2c1Nc1cccc(C(C)=O)c1`: the inhibition in assay [1] was 51%. This molecule also yielded an IC50 in assay [2] of 50 µM.

In assay [1], `Cc1cccc(Nc2nc(-c3c(C)nc4ncccn34)cs2)c1` gave an inhibition of 25%. In assay [2], this molecule registered an IC50 greater than 50 µM.

As for `COc1cc(/C=C2\C(=O)NN(c3ccc(Cl)c(Cl)c3)C2=O)ccc1O`, the Activity was determined as 99% in [3]; 105% in assay [4]; 59% in assay [5]; 122% in assay [6]; 36% in assay [7]; 61% in [8]. The Activity in assay [9] was 86%; in assay [10], 112%; in [11], 94%; in assay [12] it was 78%; in [13], 71%; in assay [14] it was 90%. The Activity was determined as 72% in assay [15], 69% in assay [16] and 107% in assay [17]. In addition, the inhibition in [1] worked out at 82%. Half-maximal inhibition in [2] (IC50) required 2.5 µM.

Molecule `COc1ccc(O)c(-c2cc(-c3ccccc3Cl)[nH]n2)c1` gave an inhibition in assay [1] of 43%.

In the case of `COc1cccc(NC(=O)Nc2nnc(-c3ccncc3)s2)c1`, the Activity in [3] was 104%; in assay [4] it was 113%; in assay [5], 77%; in assay [6], 138%; in assay [7], 11%; in assay [8], 110%. Besides, the Activity in assay [9] is 98%; in assay [10] it was 101%; in assay [11], 96%; in assay [12] it was 83%; in [13], 69%; in [14], 96%. Also, the Activity in [15] came out at 98%; in assay [16], 47%; in assay [17], 104%. This molecule also returned an inhibition in assay [1] of 41%. In assay [2], this molecule registered a half-maximal inhibitory concentration (IC50) of 5 µM.

`C=CCOc1ccc(Br)cc1/C=C1\SC(Nc2ccc(Cl)c(C(=O)O)c2)=NC1=O`: the inhibition entry in assay [1] was “inactive”. This molecule also returned an IC50 in [2] of 20 µM.

In assay [1], `COc1cc(/C=C2\C(=O)NN(c3cccc(Cl)c3)C2=O)ccc1O` gave an inhibition of 74%. Moreover, in assay [2], the concentration for half-maximal inhibition (IC50) was greater than 50 µM.

On to `COc1ccc(O)c(-c2cc(-c3ccccc3Cl)n[nH]2)c1`, for which the half-inhibitory concentration (IC50) in [2] stood at 20 µM.
